According to patent US11214803B2, “Modulators of YAP1 expression” (Ionis Pharmaceuticals, Inc., priority 2019, dated 2022):
Strand notation (5' to 3'): a small letter for the sugar, then the base; units joined by * are phosphorothioate-linked, units joined directly phosphodiester-linked; [ ] holds rarer units or linkages, { } end groups; capitals alone tell only the bases. k = constrained ethyl (cEt); [5mC] = 5-methylcytosine; d = 2'-deoxy (DNA)

Tested on: Yap1 mRNA
Test: Dose-dependent inhibition of human Yap1 in A-431 cells (Example 8, 10,000 cells per well, RTS4814)
Format: cell-based
Settings: free uptake, approximately 48 hours, RTS4814; for Yap1 mRNA, % UTC: A-431 cells, 10,000 cells per well; for IC50: A-431 cells, linear regression on log/linear plot
Experimental: Modified oligonucleotides described in the studies above were tested at various doses in A-431 cells. Cultured A-431 cells at a density of 10,000 cells per well were treated using free uptake with modified oligonucleotides diluted to concentrations described in the tables below. After approximately 48 hours, Yap1 mRNA levels were measured as previously described using the Human Yap1 primer-probe set RTS4814. Yap1 mRNA levels were normalized to total RNA content, as measured by RIBOGREEN®. Results are presented in the tables below as percent control of the amount of Yap1 mRNA relative to untreated control cells (% UTC). IC50s were calculated using a linear regression on a log/linear plot of the data in excel.

1075749 (kA*kA*kT*dT*dA*dT*dG*dA*dA*dT*dG*dA*dT*kG*kG*kG; antisense) [compound 1075749]
Yap1 mRNA, % UTC (31.3 nM): 46 % UTC
Yap1 mRNA, % UTC (125.0 nM): 22 % UTC
Yap1 mRNA, % UTC (500.0 nM): 7 % UTC
Yap1 mRNA, % UTC (2000.00 nM): 4 % UTC
IC50: < 20 nM

1074564 (DNA k[5mC]*kT*kG*dA*dA*dT*dT*d[5mC]*d[5mC]*dA*dA*dT*d[5mC]*kG*kA*kG) [compound 1074564]
Yap1 mRNA, % UTC (31.3 nM): 40 % UTC
Yap1 mRNA, % UTC (125.0 nM): 14 % UTC
Yap1 mRNA, % UTC (500.0 nM): 7 % UTC
Yap1 mRNA, % UTC (2000.00 nM): 4 % UTC
IC50: < 20 nM

1076388 (antisense kG*kA*kA*dA*dT*dA*dT*dT*d[5mC]*dG*dA*dG*dA*kA*kG*kA) [compound 1076388]
Yap1 mRNA, % UTC (31.3 nM): 87 % UTC
Yap1 mRNA, % UTC (125.0 nM): 40 % UTC
Yap1 mRNA, % UTC (500.0 nM): 13 % UTC
Yap1 mRNA, % UTC (2000.00 nM): 6 % UTC
IC50: 100 nM

1074726 (antisense kG*kG*kT*dA*dT*dA*dA*d[5mC]*dT*dG*dG*dG*d[5mC]*kA*kA*kA) [compound 1074726]
Yap1 mRNA, % UTC (31.3 nM): 26 % UTC
Yap1 mRNA, % UTC (125.0 nM): 8 % UTC
Yap1 mRNA, % UTC (500.0 nM): 4 % UTC
Yap1 mRNA, % UTC (2000.00 nM): 3 % UTC
IC50: < 20 nM

1075781 (k[5mC]*kA*kT*dA*dT*dA*dT*dT*dG*dT*dG*dA*d[5mC]*kT*kT*k[5mC]; antisense) [compound 1075781]
Yap1 mRNA, % UTC (31.3 nM): 52 % UTC
Yap1 mRNA, % UTC (125.0 nM): 15 % UTC
Yap1 mRNA, % UTC (500.0 nM): 4 % UTC
Yap1 mRNA, % UTC (2000.00 nM): 3 % UTC
IC50: < 20 nM

1075784 (kA*kT*kT*dT*dT*dA*dT*dA*dG*dG*dG*d[5mC]*d[5mC]*kA*kT*kT; antisense) [compound 1075784]
Yap1 mRNA, % UTC (31.3 nM): 54 % UTC
Yap1 mRNA, % UTC (125.0 nM): 18 % UTC
Yap1 mRNA, % UTC (500.0 nM): 5 % UTC
Yap1 mRNA, % UTC (2000.00 nM): 3 % UTC
IC50: < 20 nM

1075143 (k[5mC]*k[5mC]*kT*dT*dA*dT*dT*dA*dG*dT*d[5mC]*dA*dG*kT*kT*k[5mC]; antisense) [compound 1075143]
Yap1 mRNA, % UTC (31.3 nM): 59 % UTC
Yap1 mRNA, % UTC (125.0 nM): 21 % UTC
Yap1 mRNA, % UTC (500.0 nM): 5 % UTC
Yap1 mRNA, % UTC (2000.00 nM): 3 % UTC
IC50: < 20 nM

1075111 (kT*kA*kG*dG*dA*dA*dT*dA*dT*dG*dG*dG*dT*kA*kG*kT; antisense) [compound 1075111]
Yap1 mRNA, % UTC (31.3 nM): 42 % UTC
Yap1 mRNA, % UTC (125.0 nM): 11 % UTC
Yap1 mRNA, % UTC (500.0 nM): 6 % UTC
Yap1 mRNA, % UTC (2000.00 nM): 5 % UTC
IC50: < 20 nM

1074560 (DNA k[5mC]*k[5mC]*kA*dA*dT*d[5mC]*dG*dA*dG*dA*d[5mC]*dT*dT*kA*kA*kA) [compound 1074560]
Yap1 mRNA, % UTC (31.3 nM): 50 % UTC
Yap1 mRNA, % UTC (125.0 nM): 16 % UTC
Yap1 mRNA, % UTC (500.0 nM): 6 % UTC
Yap1 mRNA, % UTC (2000.00 nM): 4 % UTC
IC50: < 20 nM

1076260 (k[5mC]*kT*kT*dA*dA*dT*dT*dT*dA*dA*d[5mC]*dT*d[5mC]*k[5mC]*kT*kG; antisense) [compound 1076260]
Yap1 mRNA, % UTC (31.3 nM): 61 % UTC
Yap1 mRNA, % UTC (125.0 nM): 30 % UTC
Yap1 mRNA, % UTC (500.0 nM): 12 % UTC
Yap1 mRNA, % UTC (2000.00 nM): 5 % UTC
IC50: 50 nM

1076298 (kG*kT*kT*dA*dT*dA*dA*dA*dG*dA*d[5mC]*d[5mC]*d[5mC]*kA*kA*kT; antisense) [compound 1076298]
Yap1 mRNA, % UTC (31.3 nM): 92 % UTC
Yap1 mRNA, % UTC (125.0 nM): 58 % UTC
Yap1 mRNA, % UTC (500.0 nM): 29 % UTC
Yap1 mRNA, % UTC (2000.00 nM): 18 % UTC
IC50: 200 nM

1074536 (kA*kG*kT*dA*dA*dT*dA*dG*d[5mC]*dT*d[5mC]*dT*dT*kT*k[5mC]*kT; antisense) [compound 1074536]
Yap1 mRNA, % UTC (31.3 nM): 64 % UTC
Yap1 mRNA, % UTC (125.0 nM): 24 % UTC
Yap1 mRNA, % UTC (500.0 nM): 9 % UTC
Yap1 mRNA, % UTC (2000.00 nM): 6 % UTC
IC50: 40 nM

1074850 (kT*kT*kG*dT*dT*dA*dT*dG*dA*dT*dA*dG*dG*k[5mC]*kA*k[5mC]; antisense) [compound 1074850]
Yap1 mRNA, % UTC (31.3 nM): 63 % UTC
Yap1 mRNA, % UTC (125.0 nM): 20 % UTC
Yap1 mRNA, % UTC (500.0 nM): 7 % UTC
Yap1 mRNA, % UTC (2000.00 nM): 5 % UTC
IC50: 40 nM

1074630 (antisense kA*kG*kA*dG*dA*dT*dT*dT*dT*dA*dT*dG*d[5mC]*k[5mC]*kT*kG) [compound 1074630]
Yap1 mRNA, % UTC (31.3 nM): 57 % UTC
Yap1 mRNA, % UTC (125.0 nM): 23 % UTC
Yap1 mRNA, % UTC (500.0 nM): 10 % UTC
Yap1 mRNA, % UTC (2000.00 nM): 6 % UTC
IC50: < 20 nM

1076483 (kA*k[5mC]*kG*dG*dG*dA*dA*dA*dT*d[5mC]*dA*dT*dA*kT*kA*kG; antisense) [compound 1076483]
Yap1 mRNA, % UTC (31.3 nM): 63 % UTC
Yap1 mRNA, % UTC (125.0 nM): 27 % UTC
Yap1 mRNA, % UTC (500.0 nM): 11 % UTC
Yap1 mRNA, % UTC (2000.00 nM): 6 % UTC
IC50: 40 nM

1075744 (kT*kT*k[5mC]*dG*dG*dG*dT*dT*dA*dG*d[5mC]*dA*dG*kA*k[5mC]*kT; antisense) [compound 1075744]
Yap1 mRNA, % UTC (31.3 nM): 55 % UTC
Yap1 mRNA, % UTC (125.0 nM): 22 % UTC
Yap1 mRNA, % UTC (500.0 nM): 9 % UTC
Yap1 mRNA, % UTC (2000.00 nM): 7 % UTC
IC50: < 20 nM

1076326 (kG*k[5mC]*kT*dA*dA*dT*dA*dA*dT*dG*dG*dA*dA*kG*kA*kG; antisense) [compound 1076326]
Yap1 mRNA, % UTC (31.3 nM): 53 % UTC
Yap1 mRNA, % UTC (125.0 nM): 20 % UTC
Yap1 mRNA, % UTC (500.0 nM): 6 % UTC
Yap1 mRNA, % UTC (2000.00 nM): 3 % UTC
IC50: < 20 nM

1075137 (kG*kA*kT*dT*dA*dA*dA*dT*dA*d[5mC]*dT*dG*dA*k[5mC]*k[5mC]*kA; antisense) [compound 1075137]
Yap1 mRNA, % UTC (31.3 nM): 70 % UTC
Yap1 mRNA, % UTC (125.0 nM): 22 % UTC
Yap1 mRNA, % UTC (500.0 nM): 8 % UTC
Yap1 mRNA, % UTC (2000.00 nM): 4 % UTC
IC50: 100 nM

1075785 (k[5mC]*kA*kT*dT*dT*dT*dA*dT*dA*dG*dG*dG*d[5mC]*k[5mC]*kA*kT; antisense) [compound 1075785]
Yap1 mRNA, % UTC (31.3 nM): 29 % UTC
Yap1 mRNA, % UTC (125.0 nM): 7 % UTC
Yap1 mRNA, % UTC (500.0 nM): 3 % UTC
Yap1 mRNA, % UTC (2000.00 nM): 3 % UTC
IC50: < 20 nM

1076393 (antisense k[5mC]*kT*kT*dT*dA*d[5mC]*dT*dT*dA*d[5mC]*dT*dG*dG*kT*kG*kG) [compound 1076393]
Yap1 mRNA, % UTC (31.3 nM): 54 % UTC
Yap1 mRNA, % UTC (125.0 nM): 20 % UTC
Yap1 mRNA, % UTC (500.0 nM): 8 % UTC
Yap1 mRNA, % UTC (2000.00 nM): 5 % UTC
IC50: < 20 nM

1074535 (kG*kT*kA*dA*dT*dA*dG*d[5mC]*dT*d[5mC]*dT*dT*dT*k[5mC]*kT*kA; antisense) [compound 1074535]
Yap1 mRNA, % UTC (31.3 nM): 57 % UTC
Yap1 mRNA, % UTC (125.0 nM): 21 % UTC
Yap1 mRNA, % UTC (500.0 nM): 7 % UTC
Yap1 mRNA, % UTC (2000.00 nM): 5 % UTC
IC50: < 20 nM

1076004 (kT*kA*kA*dT*dT*dT*dA*dA*dT*dG*dG*d[5mC]*dT*kT*kG*k[5mC]; antisense) [compound 1076004]
Yap1 mRNA, % UTC (31.3 nM): 27 % UTC
Yap1 mRNA, % UTC (125.0 nM): 7 % UTC
Yap1 mRNA, % UTC (500.0 nM): 3 % UTC
Yap1 mRNA, % UTC (2000.00 nM): 2 % UTC
IC50: < 20 nM

1075778 (k[5mC]*kA*kT*dT*dT*dA*dT*dA*d[5mC]*d[5mC]*dA*dG*dG*k[5mC]*kA*k[5mC]; antisense) [compound 1075778]
Yap1 mRNA, % UTC (31.3 nM): 56 % UTC
Yap1 mRNA, % UTC (125.0 nM): 29 % UTC
Yap1 mRNA, % UTC (500.0 nM): 10 % UTC
Yap1 mRNA, % UTC (2000.00 nM): 5 % UTC
IC50: 30 nM
